Data as given in patent US9040687B2, “Process for the preparaton of novel porphyrin derivatives and their use as PDT agents and fluorescence probes” (COUNCIL OF SCIENTIFIC AND IDUSTRIAL RESEARCH, priority 2010, dated 2015).

Tests used:
Assay in all cases: MTT assay, cytotoxicity by cellular proliferation
Format in all cases: cell-based
[1] = system: HCT 116; conditions: Homo sapiens, cytotoxicity in the light
[2] = system: MCF 7; conditions: Homo sapiens, MCF7, cytotoxicity in the light
[3] = system: HaCaT; conditions: Homo sapiens, cytotoxicity in the light
[4] = system: Breast cancer cells (MDA MB 231); conditions: Homo sapiens, cytotoxicity in the light
Method: [Worded in the source for another cell line; this cell line is reported under the same test.] (§1) 3, (4,5-Dimethylthiazol-2-yl)-2,5-diphenyltetrazolium bromide (MTT) assay is a standard colorimetric assay for measuring cellular proliferation (cell growth). It was used to determine cytotoxicity of the porphyrin derivatives of the general formulae 1. Human cervical oral cancer cells (SCCl31 cells) (5×10^3 cells well^−1) were added to wells of two 96 well microtiter plate. One for dark cytotoxicity and another for light cytotoxicity with 150 μL DMEM (Dulbecco's Modified Eagle Medium) with 10% serum and incubated for 24 h. Then added 3.125 to 25 μM of porphyrin derivatives of the general formulae 1 in serial dilution (stock 100 mM diluted using DPBS (Dulbecco's Phosphate Buffered Saline) for test, 0.025% DMSO (dimethyl sulphoxide) for control and incubated for 3 h and irradiated in one plate using sodium vapor lamp (70 w for 15 min) while the other plate was kept in dark. After photoirradiation, DPBS was aspirated and 150 μL DMEM with 10% serum was added to each well and incubated is for 48 h. After 48 h of incubation, removed the plates from the incubator and added 10 µL of MIT (5 mg/ml stock) to each well of the plate. […] Read the absorbance at 570 nm. Percentage growth inhibition was calculated as % Growth inhibition=(control-test)/control)×100 […]

[5] = system: oral cancer cells (SCC 131); conditions: Homo sapiens, SCC131, cytotoxicity in the light
Method: as §1

[6] = system: SCC 172; conditions: SCC172, cytotoxicity in the light
[7] = system: Mia PaCa; conditions: Homo sapiens, MIA PaCa-2, cytotoxicity in the light
[8] = system: SiHa; conditions: Homo sapiens, cytotoxicity in the light
[9] = system: HeLa; conditions: Homo sapiens, cytotoxicity in the light

Oc1cccc(-c2c3nc(c(-c4cccc(O)c4)c4ccc([nH]4)c(-c4cccc(O)c4)c4nc(c(-c5cccc(O)c5)c5ccc2[nH]5)CC4)C=C3)c1 [FOSCAN, 5, 10, 15, 20-tetrakis (meta-hydroxyphenyl)-chlorin, reference compound]
IC50 [1]: 9 µM | IC50 [2]: 13 µM | IC50 [3]: 8 µM | IC50 [4]: 13.5 µM | IC50 [5]: 16 µM | IC50 [6]: 12.5 µM | IC50 [7]: 11 µM | IC50 [8]: 22.5 µM | IC50 [9]: 22 µM
